This note sets out measurements from patent US20180064811A1, “PHARMACEUTICAL COMBINATIONS COMPRISING CD33 ANTIBODIES AND DE-METHYLATING AGENTS” (Boehringer Ingelheim International GmbH, priority 2013, published 2018).

The assay has as its system HL60 cells. Briefly: ADCC (LDH release) of CD33 antibody CD33-1 with PBMC effector cells pre-treated with de-methylating agents. The format is cell-based, human. To be noted: for Relative Cytolysis (%): ADCC of CD33-1 on HL60 target cells, human PBMC effector cells pre-treated with 100 nM de-methylating agent for 3 to 6 days, E:T 25:1, relative to untreated PBMC (100), 3 independent assays; for impact on ADCC of mAb 33-1: effector cells (PBMC) treated with 100 nM for 3 to 6 days, compared with untreated effector cells. As for the experimental part:
The ability CD33 antibodies to mediate antibody-dependent cell-mediated cytotoxicity (ADCC) in the presence of effector cells pre-treated with demethylating agents is assessed using HL60 cells as target cells and human PBMCs as effector cells.
Preparation of target cells (HL-60 acute myeloid leukemia, DSMZ #ACC3)
An aliquot of the cell culture at a cell density between 1.5×10^6/m1 and 1.8×10^6/m1 and growing in the log-phase is centrifuged (200×g, i.e. 1000 rpm) for 10 min. Cells are washed once with washing medium (RPMI 1640 w/o L-glutamine) and pelleted (200×g, i.e. 1000 rpm; 10 min). Cell pellet is suspended in assay medium (1% BSA; AlbuMAX II (Gibco 11021-037)) and cell count is determined. Cell concentration is adjusted to 2×10^5/ml.
Approximately 100 ml whole blood drawn from healthy donors is used for the isolation of PBMC. 10 ml whole blood are diluted 1:3.6 with 26 ml HBSS (Gibco 14170-088; Paisley, Scotland) in a 50 ml tube. 18 ml diluted whole blood is layered on top of 12 ml Lymphoprep (Nycomed Pharma AS 1053980) in a 50 ml tube and centrifuged at 370×g (1400 rpm) for 35 min. The mononuclear cells from the interface are aspirated and washed first with HBSS (750×g, i.e. 1900 rpm; 10 min), then a second time with HBSS (300×g, i.e. 1200 rpm; 10 min) and finally with HBSS (160×g, i.e. 900 rpm; 10 min). The pelleted cells are gently suspended in culture medium/assay medium (10% heat-inactivated human AB serum in RPMI 1640 w/o L-glutamine) using a pipette and the cell count is determined in the cell counter. The PBMC concentration is adjusted to 1×10^7/ml.
The freshly isolated PBMC (5×10^5/m1) are pre-treated with de-methylating agents in culture medium (RPMI 1640 w/o L-glutamine supplemented with 10% human AB serum and decitabine or 5-azacytidine at a final concentration of 100 nM) in a tissue culture flask (75 cm^2) at 37° C. in CO2 incubator for 3 to 6 days. De-methylating agent treated PBMC are separated from cell debris on a Lymphoprep gradient. The purified de-methylating agent treated PBMC are suspended in culture medium/assay medium ata concentration of 1×10^7/ml.
For all tested cell lines an E:T ratio of 25:1 is used. The co-cultivation of effector cells with target cells in presence of test antibody is performed in quadruplicates in 96-well round-bottom microtiter plates (Costar #3799) in a final volume of 200 μl assay medium per well consisting of 10% human AB serum and 1% BSA in RPMI in 1:1 ratio. In each experimental run two plates are assayed in parallel. First effector cells (PBMC cells in 100 μl 10% human AB serum in RPMI per well) are plated, followed by target cells (in 50 μl 1% BSA in RPMI per well) and antibody solution (candidate antibody diluted in 50 μl 1% BSA in RPMI). As a control, effector cells are cultivated in assay medium alone (effector cell control) and target cells are cultivated either in assay medium alone (spontaneous lysis) or in assay medium supplemented with 1% Triton X-100 (maximal lysis). The co-culture is incubated at 37° C. in a humid CO^2 incubator for 3 to 4 hours.
At the end of the incubation cells are removed from the culture medium by centrifugation (200×g, i.e. 1000 rpm; 10 min) at room temperature. Cell free supernatants (100 μl/well) are transferred into corresponding wells of a 96-well flat-bottom plate (Costar #3595). To determine the LDH activity in these supernatants 100 μl reaction mixture (freshly mixed 250 μl catalyst with 11.25 ml dye solution) are added to each well and incubated 30 min at room temperature in the dark. Then the absorbance is measured as described below.
Cytotoxicity Detection Kit (LDH Roche #11 644 793 001) is used to determine ADCC activity. The assay is based on the measurement of LDH enzyme activity released from plasma membrane-damaged cells. LDH released into the culture supernatants reduces the tetrazolium salt from the kit to formazan. […]
Background: LDH in the medium is a marker of cell lysis.

As to `Nc1ncn([C@@H]2O[C@H](CO)[C@@H](O)[C@H]2O)c(=O)n1` [5-Azacitidine, 4-amino-1-β-D-ribofuranosyl-1,3,5-triazin-2(1H)-one], the “Relative Cytolysis (%)” value is listed as 107% and the “impact on ADCC of mAb 33-1” value is given as “did not significantly impact”. For the same compound, the “Relative Cytolysis (%)” value (listed as 5-azacytidine) came out at 98%.

For `Nc1ncn([C@H]2C[C@H](O)[C@@H](CO)O2)c(=O)n1` [Decitabine, 4-Amino-1-(2-deoxy-β-D-erythro-pentofuranosyl)-1,3,5-triazin-2(1H)-one], the “Relative Cytolysis (%)” value worked out at 98% and the “impact on ADCC of mAb 33-1” value is given as “did not significantly impact”. Further, under “listed as decitabine”, the “Relative Cytolysis (%)” value worked out at 107%.
